ChEMBL document CHEMBL4507265 (2021)

How the values were obtained:
[1] = target: Serine/threonine-protein kinase SBK1 (Homo sapiens) (UniProt Q52WX2); conditions: Compound concentration 1000.0 nM
[2] = target: Protein kinase C theta type (Homo sapiens) (UniProt Q04759); conditions: Compound concentration 1000.0 nM
[3] = target: Tyrosine-protein kinase CSK (Homo sapiens) (UniProt P41240); conditions: Compound concentration 1000.0 nM
[4] = target: Mitogen-activated protein kinase 13 (Homo sapiens) (UniProt O15264); conditions: Compound concentration 1000.0 nM
[5] = target: Serine/threonine-protein kinase SIK1 (Homo sapiens) (UniProt P57059); conditions: Compound concentration 1000.0 nM
[6] = system: Tyrosine-protein kinase ABL1 (Homo sapiens), P00519 [Y253F]; conditions: Compound concentration 1000.0 nM
[7] = target: Serine/threonine-protein kinase PLK2 (Homo sapiens) (UniProt Q9NYY3); conditions: Compound concentration 1000.0 nM
[8] = target: Ribosomal protein S6 kinase alpha-4 (Homo sapiens) (UniProt O75676); conditions: Compound concentration 1000.0 nM
[9] = system: Receptor-type tyrosine-protein kinase FLT3 (Homo sapiens), P36888 [D835V]; conditions: Compound concentration 1000.0 nM
[10] = target: Activin receptor type-1 (Homo sapiens) (UniProt Q04771); conditions: Compound concentration 1000.0 nM
[11] = target: Myosin light chain kinase 2, skeletal/cardiac muscle (Homo sapiens) (UniProt Q9H1R3); conditions: Compound concentration 1000.0 nM
[12] = target: Casein kinase I isoform gamma-3 (Homo sapiens) (UniProt Q9Y6M4); conditions: Compound concentration 1000.0 nM
[13] = target: Calcium/calmodulin-dependent protein kinase type II subunit gamma (Homo sapiens) (UniProt Q13555); conditions: Compound concentration 1000.0 nM
[14] = target: Serine/threonine-protein kinase 26 (Homo sapiens) (UniProt Q9P289); conditions: Compound concentration 1000.0 nM
[15] = target: Activin receptor type-1-like (Homo sapiens) (UniProt P37023); conditions: Compound concentration 1000.0 nM
[16] = target: Serine/threonine-protein kinase 17A (Homo sapiens) (UniProt Q9UEE5); conditions: Compound concentration 1000.0 nM
[17] = target: Protein kinase C delta type (Homo sapiens) (UniProt Q05655); conditions: Compound concentration 1000.0 nM
[18] = target: Ribosomal protein S6 kinase alpha-3 (Homo sapiens) (UniProt P51812); conditions: Compound concentration 1000.0 nM
[19] = system: Receptor-type tyrosine-protein kinase FLT3 (Homo sapiens), P36888 [R834Q]; conditions: Compound concentration 1000.0 nM
[20] = target: Serine/threonine-protein kinase PLK3 (Homo sapiens) (UniProt Q9H4B4); conditions: Compound concentration 1000.0 nM
[21] = target: Focal adhesion kinase 1 (Homo sapiens) (UniProt Q05397); conditions: Compound concentration 1000.0 nM
[22] = target: Tyrosine-protein kinase receptor TYRO3 (Homo sapiens) (UniProt Q06418); conditions: Compound concentration 1000.0 nM
[23] = target: Cyclin-dependent kinase-like 2 (Homo sapiens) (UniProt Q92772); conditions: Compound concentration 1000.0 nM
[24] = target: Mitogen-activated protein kinase 3 (Homo sapiens) (UniProt P27361); conditions: Compound concentration 1000.0 nM
[25] = target: Alpha-2B adrenergic receptor (Homo sapiens) (UniProt P18089); conditions: Compound concentration 10.0 uM
[26] = target: Mitogen-activated protein kinase kinase kinase 2 (Homo sapiens) (UniProt Q9Y2U5); conditions: Compound concentration 1000.0 nM
[27] = target: Megakaryocyte-associated tyrosine-protein kinase (Homo sapiens) (UniProt P42679); conditions: Compound concentration 1000.0 nM
[28] = target: Myosin light chain kinase (Homo sapiens) (UniProt Q32MK0); conditions: Compound concentration 1000.0 nM
[29] = target: Tyrosine-protein kinase ABL2 (Homo sapiens) (UniProt P42684); conditions: Compound concentration 1000.0 nM
[30] = target: Ankyrin repeat and protein kinase domain-containing protein 1 (Homo sapiens) (UniProt Q8NFD2); conditions: Compound concentration 1000.0 nM
[31] = target: Mitogen-activated protein kinase kinase kinase 11 (Homo sapiens) (UniProt Q16584); conditions: Compound concentration 1000.0 nM
[32] = target: Receptor-interacting serine/threonine-protein kinase 4 (Homo sapiens) (UniProt P57078); conditions: Compound concentration 1000.0 nM
[33] = target: Cyclin-dependent kinase 2 homolog (Plasmodium falciparum (isolate 3D7)) (UniProt P61075); conditions: Compound concentration 1000.0 nM
[34] = target: Cyclin-dependent kinase 4 (Homo sapiens) (UniProt P11802); conditions: Compound concentration 1000.0 nM
[35] = target: Serine/threonine-protein kinase N2 (Homo sapiens) (UniProt Q16513); conditions: Compound concentration 1000.0 nM
[36] = target: D(2) dopamine receptor (Homo sapiens) (UniProt P14416); conditions: Compound concentration 10.0 uM
[37] = target: Dual specificity protein kinase CLK4 (Homo sapiens) (UniProt Q9HAZ1); conditions: Compound concentration 1000.0 nM
[38] = target: Mitogen-activated protein kinase kinase kinase kinase 4 (Homo sapiens) (UniProt O95819); conditions: Compound concentration 1000.0 nM
[39] = system: Tyrosine-protein kinase ABL1 (Homo sapiens), P00519 [M351T]; conditions: Compound concentration 1000.0 nM
[40] = system: Epidermal growth factor receptor (Homo sapiens), P00533 [UNDEFINED MUTATION]; conditions: Compound concentration 1000.0 nM
[41] = system: Receptor-type tyrosine-protein kinase FLT3 (Homo sapiens), P36888 [UNDEFINED MUTATION]; conditions: Compound concentration 1000.0 nM
[42] = target: Cyclin-dependent kinase 16 (Homo sapiens) (UniProt Q00536); conditions: Compound concentration 1000.0 nM
[43] = target: AP2-associated protein kinase 1 (Homo sapiens) (UniProt Q2M2I8); conditions: Compound concentration 1000.0 nM
[44] = target: cAMP-dependent protein kinase catalytic subunit beta (Homo sapiens) (UniProt P22694); conditions: Compound concentration 1000.0 nM
[45] = target: Mitogen-activated protein kinase kinase kinase 3 (Homo sapiens) (UniProt Q99759); conditions: Compound concentration 1000.0 nM

Sequence of Megakaryocyte-associated tyrosine-protein kinase (Homo sapiens) (P42679 whole entry): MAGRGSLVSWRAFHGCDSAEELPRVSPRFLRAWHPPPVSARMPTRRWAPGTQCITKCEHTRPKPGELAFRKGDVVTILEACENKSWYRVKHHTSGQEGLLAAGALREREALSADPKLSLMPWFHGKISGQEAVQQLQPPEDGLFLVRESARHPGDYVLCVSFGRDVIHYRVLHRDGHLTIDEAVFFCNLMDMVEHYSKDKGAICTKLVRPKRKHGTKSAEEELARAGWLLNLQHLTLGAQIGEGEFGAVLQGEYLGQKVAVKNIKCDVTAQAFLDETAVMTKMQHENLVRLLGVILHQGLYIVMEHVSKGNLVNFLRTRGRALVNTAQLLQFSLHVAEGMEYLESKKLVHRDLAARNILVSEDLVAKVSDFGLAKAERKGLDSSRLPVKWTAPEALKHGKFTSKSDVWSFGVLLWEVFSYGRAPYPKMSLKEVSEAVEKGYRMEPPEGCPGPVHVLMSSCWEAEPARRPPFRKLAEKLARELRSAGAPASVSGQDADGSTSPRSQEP
Sequence of Dual specificity protein kinase CLK4 (Homo sapiens) (Q9HAZ1 whole entry, looked up): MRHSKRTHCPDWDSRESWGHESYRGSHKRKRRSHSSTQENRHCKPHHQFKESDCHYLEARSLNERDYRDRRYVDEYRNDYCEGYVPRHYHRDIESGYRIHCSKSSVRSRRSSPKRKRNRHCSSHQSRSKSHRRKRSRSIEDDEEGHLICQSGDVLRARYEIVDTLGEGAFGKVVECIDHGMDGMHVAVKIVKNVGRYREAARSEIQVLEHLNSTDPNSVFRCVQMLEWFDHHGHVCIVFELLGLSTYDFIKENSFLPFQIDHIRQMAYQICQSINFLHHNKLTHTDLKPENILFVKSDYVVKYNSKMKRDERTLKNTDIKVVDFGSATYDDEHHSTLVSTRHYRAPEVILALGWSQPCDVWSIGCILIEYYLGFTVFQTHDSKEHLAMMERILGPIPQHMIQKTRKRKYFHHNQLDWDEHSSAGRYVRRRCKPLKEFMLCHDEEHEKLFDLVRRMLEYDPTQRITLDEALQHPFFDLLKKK
Sequence of Epidermal growth factor receptor (Homo sapiens), P00533 [UNDEFINED MUTATION] (P00533 whole entry, looked up, change not shown): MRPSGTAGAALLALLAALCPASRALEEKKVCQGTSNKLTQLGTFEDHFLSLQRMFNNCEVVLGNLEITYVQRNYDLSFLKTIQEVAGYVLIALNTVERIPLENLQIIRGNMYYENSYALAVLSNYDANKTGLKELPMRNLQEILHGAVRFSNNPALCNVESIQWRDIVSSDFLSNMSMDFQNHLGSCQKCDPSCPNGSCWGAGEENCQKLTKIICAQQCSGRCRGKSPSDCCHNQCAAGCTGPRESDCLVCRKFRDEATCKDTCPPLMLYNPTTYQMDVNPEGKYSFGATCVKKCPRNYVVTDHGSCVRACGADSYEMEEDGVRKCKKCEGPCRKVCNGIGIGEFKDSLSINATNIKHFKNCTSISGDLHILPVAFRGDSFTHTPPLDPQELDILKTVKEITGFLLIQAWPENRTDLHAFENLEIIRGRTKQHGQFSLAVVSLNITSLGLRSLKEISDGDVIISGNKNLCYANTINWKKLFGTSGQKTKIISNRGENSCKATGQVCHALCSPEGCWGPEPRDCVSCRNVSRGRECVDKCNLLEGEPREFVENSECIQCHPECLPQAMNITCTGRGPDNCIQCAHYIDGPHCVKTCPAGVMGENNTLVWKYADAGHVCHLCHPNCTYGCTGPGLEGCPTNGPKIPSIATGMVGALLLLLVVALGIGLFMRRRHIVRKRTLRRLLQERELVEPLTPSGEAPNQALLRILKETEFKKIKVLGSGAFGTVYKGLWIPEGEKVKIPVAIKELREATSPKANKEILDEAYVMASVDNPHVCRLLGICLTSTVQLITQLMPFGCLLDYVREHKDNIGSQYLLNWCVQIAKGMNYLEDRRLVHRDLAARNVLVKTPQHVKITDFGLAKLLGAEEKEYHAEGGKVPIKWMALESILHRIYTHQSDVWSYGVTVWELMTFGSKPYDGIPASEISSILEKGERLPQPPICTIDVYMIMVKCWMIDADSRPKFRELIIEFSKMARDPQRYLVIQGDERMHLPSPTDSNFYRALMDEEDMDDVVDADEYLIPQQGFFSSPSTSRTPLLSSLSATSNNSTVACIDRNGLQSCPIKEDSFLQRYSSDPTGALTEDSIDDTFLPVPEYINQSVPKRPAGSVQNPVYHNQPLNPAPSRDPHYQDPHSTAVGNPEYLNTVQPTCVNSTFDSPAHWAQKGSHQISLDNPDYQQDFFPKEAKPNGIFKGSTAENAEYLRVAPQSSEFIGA
Sequence of Ribosomal protein S6 kinase alpha-4 (Homo sapiens) (O75676 whole entry, looked up): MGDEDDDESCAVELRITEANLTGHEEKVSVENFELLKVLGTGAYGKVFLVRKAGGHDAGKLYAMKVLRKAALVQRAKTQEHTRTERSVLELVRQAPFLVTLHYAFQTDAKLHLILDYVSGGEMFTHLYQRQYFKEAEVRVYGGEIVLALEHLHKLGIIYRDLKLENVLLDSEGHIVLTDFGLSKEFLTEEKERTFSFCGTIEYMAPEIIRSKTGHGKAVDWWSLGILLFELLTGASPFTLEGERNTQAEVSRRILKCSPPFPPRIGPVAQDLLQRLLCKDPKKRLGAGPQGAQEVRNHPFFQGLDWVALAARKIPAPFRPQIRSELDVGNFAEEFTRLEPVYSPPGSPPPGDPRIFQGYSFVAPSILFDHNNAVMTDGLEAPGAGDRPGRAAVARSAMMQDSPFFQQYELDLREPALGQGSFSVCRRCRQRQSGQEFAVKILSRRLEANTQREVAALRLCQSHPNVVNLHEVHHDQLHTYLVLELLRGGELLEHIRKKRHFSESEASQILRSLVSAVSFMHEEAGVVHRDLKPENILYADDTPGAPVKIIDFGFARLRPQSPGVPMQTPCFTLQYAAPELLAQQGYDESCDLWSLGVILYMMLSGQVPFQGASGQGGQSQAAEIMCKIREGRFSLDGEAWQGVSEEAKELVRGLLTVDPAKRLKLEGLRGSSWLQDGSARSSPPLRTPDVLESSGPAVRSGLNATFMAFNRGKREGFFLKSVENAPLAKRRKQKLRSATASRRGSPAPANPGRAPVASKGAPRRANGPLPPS
Sequence of Serine/threonine-protein kinase SIK1 (Homo sapiens) (P57059 whole entry): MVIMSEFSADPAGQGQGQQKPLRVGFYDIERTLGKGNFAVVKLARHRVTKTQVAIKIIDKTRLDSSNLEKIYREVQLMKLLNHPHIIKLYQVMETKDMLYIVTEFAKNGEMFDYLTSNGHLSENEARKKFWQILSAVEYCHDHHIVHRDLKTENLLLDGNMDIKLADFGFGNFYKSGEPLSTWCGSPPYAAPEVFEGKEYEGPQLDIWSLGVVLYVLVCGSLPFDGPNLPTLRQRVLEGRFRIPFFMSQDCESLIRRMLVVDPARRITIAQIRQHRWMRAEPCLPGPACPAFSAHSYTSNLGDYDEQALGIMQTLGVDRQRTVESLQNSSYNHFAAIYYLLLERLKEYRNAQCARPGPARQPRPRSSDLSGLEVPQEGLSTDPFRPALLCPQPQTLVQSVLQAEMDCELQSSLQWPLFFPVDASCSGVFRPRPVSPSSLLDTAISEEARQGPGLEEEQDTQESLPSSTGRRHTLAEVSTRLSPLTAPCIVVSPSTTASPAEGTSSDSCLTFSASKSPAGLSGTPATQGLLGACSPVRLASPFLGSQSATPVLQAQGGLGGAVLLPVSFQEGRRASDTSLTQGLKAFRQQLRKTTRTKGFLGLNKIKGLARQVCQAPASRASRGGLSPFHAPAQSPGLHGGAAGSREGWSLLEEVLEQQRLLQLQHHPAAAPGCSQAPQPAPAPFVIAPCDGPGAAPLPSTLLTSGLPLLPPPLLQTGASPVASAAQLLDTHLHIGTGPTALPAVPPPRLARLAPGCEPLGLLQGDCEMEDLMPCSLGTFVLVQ
Sequence of AP2-associated protein kinase 1 (Homo sapiens) (Q2M2I8 whole entry, looked up): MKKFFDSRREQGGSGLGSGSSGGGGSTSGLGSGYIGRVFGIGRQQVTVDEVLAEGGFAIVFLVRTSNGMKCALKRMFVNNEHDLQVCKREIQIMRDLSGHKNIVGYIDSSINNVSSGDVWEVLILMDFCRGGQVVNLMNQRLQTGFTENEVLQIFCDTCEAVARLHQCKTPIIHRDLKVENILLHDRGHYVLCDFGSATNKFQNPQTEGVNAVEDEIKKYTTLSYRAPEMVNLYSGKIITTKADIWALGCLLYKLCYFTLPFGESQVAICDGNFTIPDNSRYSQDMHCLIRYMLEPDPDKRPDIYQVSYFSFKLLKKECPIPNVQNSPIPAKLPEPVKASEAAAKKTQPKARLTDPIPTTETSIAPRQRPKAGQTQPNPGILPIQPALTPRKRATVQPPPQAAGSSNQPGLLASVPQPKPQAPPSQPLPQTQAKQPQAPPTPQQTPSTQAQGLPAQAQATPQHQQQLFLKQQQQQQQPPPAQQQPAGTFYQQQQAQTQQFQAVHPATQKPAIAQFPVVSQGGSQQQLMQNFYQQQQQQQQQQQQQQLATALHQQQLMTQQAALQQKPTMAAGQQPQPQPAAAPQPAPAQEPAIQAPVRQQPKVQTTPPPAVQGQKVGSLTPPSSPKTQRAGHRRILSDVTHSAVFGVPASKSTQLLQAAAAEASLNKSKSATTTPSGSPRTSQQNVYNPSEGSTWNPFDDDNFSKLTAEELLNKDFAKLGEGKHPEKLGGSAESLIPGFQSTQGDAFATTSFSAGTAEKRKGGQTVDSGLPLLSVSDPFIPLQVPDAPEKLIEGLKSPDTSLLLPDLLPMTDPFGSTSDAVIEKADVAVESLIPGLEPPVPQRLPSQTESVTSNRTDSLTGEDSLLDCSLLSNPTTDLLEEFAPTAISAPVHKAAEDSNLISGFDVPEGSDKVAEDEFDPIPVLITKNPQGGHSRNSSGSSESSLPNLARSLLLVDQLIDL
Sequence of Cyclin-dependent kinase 4 (Homo sapiens) (P11802 whole entry): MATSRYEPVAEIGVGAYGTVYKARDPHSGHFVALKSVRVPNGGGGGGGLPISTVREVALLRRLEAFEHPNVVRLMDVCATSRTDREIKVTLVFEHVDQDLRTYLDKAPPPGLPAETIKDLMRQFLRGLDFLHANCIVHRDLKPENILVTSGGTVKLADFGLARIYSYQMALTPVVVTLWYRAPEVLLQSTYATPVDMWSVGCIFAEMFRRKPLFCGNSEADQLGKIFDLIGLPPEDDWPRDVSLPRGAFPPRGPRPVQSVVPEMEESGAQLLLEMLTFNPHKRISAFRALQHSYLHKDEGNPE

SMILES: NS(=O)(=O)c1cc(NC(=O)C2(c3ccccc3Cl)CC2)ccc1Oc1cccc(Cl)c1 [BAY-207]
- residual activity [1]: 100%
- residual activity [2]: 88%
- residual activity [3]: 100%
- residual activity [4]: 88%
- residual activity [5]: 71%
- residual activity [6]: 69%
- residual activity [7]: 84%
- residual activity [8]: 89%
- residual activity [9]: 100%
- residual activity [10]: 100%
- residual activity [11]: 73%
- residual activity [12]: 100%
- residual activity [13]: 93%
- residual activity [14]: 100%
- residual activity [15]: 45%
- residual activity [16]: 85%
- residual activity [17]: 89%
- residual activity [18]: 92%
- residual activity [19]: 100%
- residual activity [20]: 86%
- residual activity [21]: 87%
- residual activity [22]: 100%
- residual activity [23]: 94%
- residual activity [24]: 76%
- inhibition [25]: 43.4%
- residual activity [26]: 100%
- residual activity [27]: 100%
- residual activity [28]: 89%
- residual activity [29]: 80%
- residual activity [30]: 97%
- residual activity [31]: 79%
- residual activity [32]: 100%
- residual activity [33]: 93%
- residual activity [34]: 70%
- residual activity [35]: 83%
- inhibition [36]: -9.74%
- residual activity [37]: 100%
- residual activity [38]: 100%
- residual activity [39]: 70%
- residual activity [40]: 57%
- residual activity [41]: 100%
- residual activity [42]: 100%
- residual activity [43]: 100%
- residual activity [44]: 88%
- residual activity [45]: 100%

SMILES: NS(=O)(=O)c1cc(NC(=O)Cc2ccccc2)ccc1Oc1cccc(Cl)c1 [BAY-1797]
- residual activity [1]: 100%
- residual activity [2]: 74%
- residual activity [3]: 100%
- residual activity [4]: 100%
- residual activity [5]: 93%
- residual activity [6]: 76%
- residual activity [7]: 73%
- residual activity [8]: 90%
- residual activity [9]: 86%
- residual activity [10]: 84%
- residual activity [11]: 81%
- residual activity [12]: 74%
- residual activity [13]: 86%
- residual activity [14]: 99%
- residual activity [15]: 99%
- residual activity [16]: 94%
- residual activity [17]: 100%
- residual activity [18]: 72%
- residual activity [19]: 91%
- residual activity [20]: 87%
- residual activity [21]: 96%
- residual activity [22]: 76%
- residual activity [23]: 99%
- residual activity [24]: 94%
- inhibition [25]: 56.6%
- residual activity [26]: 84%
- residual activity [27]: 68%
- residual activity [28]: 89%
- residual activity [29]: 87%
- residual activity [30]: 78%
- residual activity [31]: 78%
- residual activity [32]: 83%
- residual activity [33]: 100%
- residual activity [34]: 71%
- residual activity [35]: 90%
- inhibition [36]: -7.81%
- residual activity [37]: 83%
- residual activity [38]: 71%
- residual activity [39]: 78%
- residual activity [40]: 67%
- residual activity [41]: 97%
- residual activity [42]: 92%
- residual activity [43]: 88%
- residual activity [44]: 100%
- residual activity [45]: 71%
